Assay results from patent US9629894B2, “Magnesium-containing oxytocin formulations and methods of use” (Trigemina, Inc., priority 2015, dated 2017).

Legend:
[1] = system: rat model of facial thermal nociception; test: Rat model of facial thermal nociception: cheek withdrawal latency to radiant heat after nasal administration; format: in vivo; settings: for analgesic effect (elevation in latency to withdrawal): 15-300 min
Description: The heat from a projector lamp was focused on the pre-shaved cheek of rats and the intensity was varied to obtain a withdrawal response with a latency of between 6.5 and 8.5 seconds. The intensity applied to achieve such latencies was recorded for each animal. Once stable/acceptable baseline values were obtained, the average latencies for each rat were calculated. After baseline cheek withdrawal latencies were determined for all rats, each rat received a single nasal administration of either normal saline, 15% magnesium chloride in water, or 1% magnesium lactate in water according to the method developed by Frey (Thorne, et al. Neuroscience., 127: 481-496 (2004)). Briefly, rats (under urethane anesthesia) were placed in a supine position with a rolled pad (2×2 gauze) inserted under the dorsal neck to extend the head back toward the supporting surface. The upper surface of the neck was kept horizontal throughout the dosing procedure to maintain the drug solution in the nasal cavity and minimize dripping down the nasopharynx. A 6 μL drop of the respective drug solution was delivered off the tip of a small pipette and presented to the nares on the left side of the rat while occluding the opposite nares. One drop was administered every 2 minutes, alternating between each nares (thus amounting to a four minute interval between doses to the same nares). Each nostril received 4 drops, totaling a combined volume of 48 μL (8 drops of 6 μL each). Drug solutions were coded in order to keep the experimenter blinded as to the substances delivered. Left cheek withdrawal latencies in response to radiant heat stimulation were then measured over the next 3 hours. Withdrawal latencies were measured prior to nasal administration and at 1, 2, and 3 hours post-treatment.
(§1) One of 4 concentrations of dibasic magnesium citrate (1:1 Mg/citrate) was applied to rats and the effects of these applications on responses to noxious thermal stimulation of the face were assessed as described above. Each rat received a single nasal administration of 3, 6, 10, or 12% magnesium citrate in water (6 rats/group) according to the method described above. Left cheek withdrawal latencies in response to radiant heat stimulation were then measured over the following 300 minutes. Withdrawal latencies were measured prior to nasal administration and at 15, 30, 45, 60, 120, 180, 240, and 300 min post-treatment.
as §1, with “3 doses” for “4 concentrations”, “oxytocin in buffered saline” for “dibasic magnesium citrate (1:1 Mg/citrate)”, “1, 4,” for “3, 6, 10,”, “8 μg oxytocin” for “12% magnesium citrate”, “aqueous solution” for “water”
Aqueous solutions containing a combination of magnesium citrate at one of 3 concentrations with oxytocin at one of 3 doses were applied nasally in rats and changes in withdrawal response latency were measured as above. Each rat received a single nasal administration of 1, 4, or 8 μg of oxytocin in aqueous solution containing 3, 6, or 12% magnesium citrate according to the method described above. Left cheek withdrawal latencies in response to radiant heat stimulation were then measured over the following 300 minutes. Withdrawal latencies were measured prior to nasal administration and at 15, 30, 45, 60, 120, 180, 240, and 300 min post-treatment.
Difference scores were generated for each time point after dosing by comparing the respective withdrawal response latency to pre-dosing (baseline) values.

[2] = system: rat paw inflammation model; test: Rat paw inflammation model (complete Freund's adjuvant in forepaw), force withdrawal threshold to mechanical stimulation; format: in vivo; settings: nasal, FIG. 8
Description: The analgesic effect of nasally administered oxytocin on cervical nerve-associated inflammatory pain was assessed in a rat paw inflammation model (Martin et al., Pain 1999, 82:199-205). Oxytocin was nasally administered at one of three doses (193, 385 or 768 micrograms in 48 microliters) and force withdrawal thresholds in grams were determined following mechanical stimulation of the inflamed area (forepaw), at regular intervals over the next three hours, and compared against those of vehicle (phosphate buffered saline) treated rats. Injection of complete Freund's adjuvant into the left forepaw of rats produced a robust inflammation of that paw as well as a substantial decrease in the force necessary to elicit a withdrawal response (mechanical allodynia).

[3] = system: head, neck and shoulder pain; test: Patient with chronic tension-type headache with head, neck and shoulder pain, oxytocin nasal sprays; format: in vivo, human
From the text: A patient with chronic tension-type headache reported having intense pain in their head, neck and shoulders. The patient took 4 sprays of 7.5 IU/spray oxytocin for a dose of 30 units, at which point their headache pain was gone, but the neck and shoulder pain remained. […] Thus, a higher dose was necessary to affect neck and shoulder pain than was necessary to inhibit head pain in the same patient.

[4] = 4 sprays of 7.5 IU/spray oxytocin, dose of 30 units

With `[Cl-].[Cl-].[Mg+2]` [magnesium chloride] the “analgesia at 2 and 3 hours after dosing” value ([1]; 15% magnesium chloride in water, nasal, 2 and 3 hours) was “analgesia continuing” and the “analgesic effect compared to nasal saline treated rats” value ([1]; 15% magnesium chloride in water, nasal, 1 hour) was “strong analgesic effect”.

`CC(O)C(=O)[O-].CC(O)C(=O)[O-].[Mg+2]` (centres unmarked) [magnesium lactate] was tested, and the “analgesic effect (withdrawal latency)” value ([1]; 1% magnesium lactate in water, nasal, rats) was “mild analgesic effect”, the “latencies at the 2 and 3 hour time points” value ([1]; 1% magnesium lactate in water, nasal, rats, 2 and 3 hours) was “still substantially elevated” and the “raising response latencies (withdrawal latency to noxious heat)” value ([1]; 1% magnesium lactate in water, single nasal administration 48 μL, rats) was “approximately 1.5 s”.

With `CC[C@H](C)[C@@H]1NC(=O)[C@H](Cc2ccc(O)cc2)NC(=O)[C@@H](N)CSSC[C@@H](C(=O)N2CCC[C@H]2C(=O)N[C@@H](CC(C)C)C(=O)NCC(N)=O)NC(=O)[C@H](CC(N)=O)NC(=O)[C@H](CCC(N)=O)NC1=O` [oxytocin, Cys-Tyr-Ile-Gln-Asn-Cys-Pro-Leu-Gly] the “reversal of the mechanical allodynia resulting from inflammation” value ([2]; higher 2 doses, 385 or 768 micrograms in 48 microliters) was “statistically significant partial reversal”, the “increasing pain thresholds (force withdrawal threshold)” value ([2]; lowest dose, 193 micrograms in 48 microliters) was “ineffective” and the withdrawal latency ([1]; 1 μg oxytocin, nasal) was “no increase”. For the same molecule, the “analgesic effect (elevation in latency to withdrawal)” value ([1]; 1, 4 or 8 μg oxytocin in aqueous solution, nasal, FIG. 3) was “clear dose-dependent analgesic effect”, the “latency to withdrawal in response to noxious cheek heating” value ([1]; 4 and 8 μg oxytocin, nasal) was “robust increase in latency to withdrawal” and the headache pain [3, 4] was “gone”. For the same molecule, the “neck and shoulder pain” value [3, 4] was “remained” and the “neck and shoulder pain” value ([3]; additional 8-10 sprays, or a total of 60-75 IU) was “receded and ceased”.

magnesium citrate was tested, and the “analgesic effect (elevation in latency to withdrawal)” value ([1]; 3, 6, 10 or 12% magnesium citrate in water, nasal, FIG. 2) was “clear dose-dependent analgesic effect”.
